Test results reported in ChEMBL document CHEMBL1134170, “Securiosides A and B, novel acylated triterpene bisdesmosides with selective cytotoxic activity against M-CSF-stimulated macrophages” (Bioorg Med Chem Lett, 2001).
pIC50: −log10 of the molar value. Activity calls are given as the source filed them. The calls are words filed in the database; no cut-off is given here.

How the values were obtained:
Mus musculus = organism: Mus musculus; experiment: Cytotoxic activity against M-CSF-stimulated macrophages (from male mice); assay type: functional
Ovis aries = organism: Ovis aries; experiment: Ability to hemolyze sheep erythrocytes and induce change in macrophage morphology and DNA fragmentation at a concentration of 10 ug/mL; inactive; assay type: functional

Compound | pIC50 (Mus musculus) | Hemolysis (Ovis aries)
COc1ccc(/C=C/C(=O)O[C@H]2[C@H](O)[C@@H](O[C@H]3O[C@H](C)[C@@H](O[C@H]4OCC(O[C@H]5O[C@H](CO)[C@@H](O)[C@@H](O)[C@H]5O)C(O[C@H]5O[C@H](CO)[C@H](O)[C@@H](O)[C@H]5O)[C@H]4O)[C@@H](O)[C@@H]3O)[C@@H](OC(=O)[C@]34CCC(C)(C)C[C@H]3C3=CC[C@@H]5[C@@]6(C)C[C@H](O)[C@H](O[C@@H]7O[C@@H](CO)[C@@H](O)[C@H](O)[C@@H]7O)[C@@](C)(C(=O)O)C6CC[C@@]5(C)[C@]3(CO)CC4)O[C@@H]2C)cc1OC (some centres undefined) [SECURIOSIDE B] | > 6.60 | inactive
COc1ccc(/C=C/C(=O)O[C@H]2[C@@H](O[C@H]3O[C@H](COC(C)=O)[C@H](O)[C@H](O)[C@H]3O)[C@@H](O[C@H]3O[C@H](C)[C@@H](O[C@H]4OC[C@H](O)[C@H](O)[C@H]4O)[C@@H](O)[C@@H]3O)[C@H](OC(=O)[C@]34CCC(C)(C)C[C@H]3C3=CC[C@@H]5[C@@]6(C)C[C@H](O)[C@H](O[C@@H]7O[C@@H](CO)[C@@H](O)[C@H](O)[C@@H]7O)[C@@](C)(C(=O)O)C6CC[C@@]5(C)[C@]3(CO)CC4)O[C@@H]2C)cc1OC (some centres undefined) [SECURIOSIDE A] | > 6.60 | inactive
